Results on 4 compounds are retold here after patent US10376476B2, “Panicein compounds, compositions and uses thereof” (CENTRE NATIONAL DE LA RECHERCHE SCIENTIFIQUE, priority 2014, dated 2019).

The test concerns the target T1, wild-type Patched (hPtc) expressed in yeasts (Homo sapiens, UniProt Q13635).
T1 construct: MAP; expressed in transfected cells; host or cells: Saccharomyces cerevisiae K699
T1 sequence (Q13635 1-1447): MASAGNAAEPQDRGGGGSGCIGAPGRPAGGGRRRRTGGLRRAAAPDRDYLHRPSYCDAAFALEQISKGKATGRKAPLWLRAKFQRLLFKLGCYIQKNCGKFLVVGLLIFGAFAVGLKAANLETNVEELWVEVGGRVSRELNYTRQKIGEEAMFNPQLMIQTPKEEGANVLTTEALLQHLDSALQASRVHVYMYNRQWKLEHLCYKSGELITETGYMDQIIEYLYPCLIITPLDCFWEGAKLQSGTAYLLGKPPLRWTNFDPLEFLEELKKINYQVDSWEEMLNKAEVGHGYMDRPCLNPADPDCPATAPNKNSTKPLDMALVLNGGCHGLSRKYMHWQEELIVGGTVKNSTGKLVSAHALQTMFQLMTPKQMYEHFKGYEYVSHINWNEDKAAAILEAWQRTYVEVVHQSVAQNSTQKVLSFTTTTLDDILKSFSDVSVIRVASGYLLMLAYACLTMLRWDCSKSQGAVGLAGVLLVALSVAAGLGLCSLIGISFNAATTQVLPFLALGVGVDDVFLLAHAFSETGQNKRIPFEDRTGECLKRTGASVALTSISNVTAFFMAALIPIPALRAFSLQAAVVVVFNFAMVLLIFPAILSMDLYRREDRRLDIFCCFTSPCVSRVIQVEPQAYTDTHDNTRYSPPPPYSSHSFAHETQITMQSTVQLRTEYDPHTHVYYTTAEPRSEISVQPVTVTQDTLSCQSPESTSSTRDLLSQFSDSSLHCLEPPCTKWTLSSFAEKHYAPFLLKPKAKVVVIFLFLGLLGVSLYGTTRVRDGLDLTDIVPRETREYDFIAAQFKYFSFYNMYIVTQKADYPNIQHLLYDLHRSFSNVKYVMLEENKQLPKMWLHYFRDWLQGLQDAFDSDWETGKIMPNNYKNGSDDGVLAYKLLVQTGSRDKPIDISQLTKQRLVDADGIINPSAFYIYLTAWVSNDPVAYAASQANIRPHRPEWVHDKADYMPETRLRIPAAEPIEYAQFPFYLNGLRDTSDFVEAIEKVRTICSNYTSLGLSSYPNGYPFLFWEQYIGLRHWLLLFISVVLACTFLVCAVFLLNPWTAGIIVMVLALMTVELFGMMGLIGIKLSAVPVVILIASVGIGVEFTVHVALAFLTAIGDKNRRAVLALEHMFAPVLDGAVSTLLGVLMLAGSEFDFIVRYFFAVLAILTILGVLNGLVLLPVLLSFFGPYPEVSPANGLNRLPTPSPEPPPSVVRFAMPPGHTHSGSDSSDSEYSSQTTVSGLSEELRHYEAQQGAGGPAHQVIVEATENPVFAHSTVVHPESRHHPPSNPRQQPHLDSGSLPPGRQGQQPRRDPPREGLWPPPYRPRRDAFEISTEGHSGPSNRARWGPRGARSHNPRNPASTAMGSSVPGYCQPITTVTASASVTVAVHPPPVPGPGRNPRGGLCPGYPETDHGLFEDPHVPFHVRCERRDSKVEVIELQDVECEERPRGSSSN
The test can be described thus: Doxorubicin efflux from yeasts (intracellular dxr fluorescence). The class given is cell-based. The conditions noted are these: for Efflux (%) of dxr: WT-hPtc-yeasts, 10 μM paniceins, 10 min, 5 mM 2-deoxy-D-glucose; for dxr fluorescence in hPtc-expressing yeasts after efflux: 10 μM paniceins during efflux, contrary to control yeasts. As for the experimental part:
A. Compound P5 inhibits doxorubicin efflux from melanoma cells MeWo and A375. Cells were grown on cover-slips, incubated for 2 hour at 37° C. with 10 μM doxorubicin and quickly rinsed with phosphate buffer (pH 7.4). One cover-slip of each cell line was immediately fixed for doxorubicin charge control. The other cover-slips were incubated with buffer supplemented with DMSO or 10 μM of compound P5 30 min under gentle shaking and immediately fixed. Dxr intracellular fluorescence was visualized by epifluorescence and analyzed using Image J software on more than 30 cells of 3 different fields for each condition. The results were analyzed using the Student t test in which significance is attained at P<0.05 (**: P<0.005, ***: P<0.0005). B. Paniceins inhibit doxorubicin efflux from Patched-expressing yeasts. Yeasts expressing wild-type Patched (hPtc, in black), mutant Patched G509VD513Y (hPtcVXXXY, in grey), and control yeasts (in white) were incubated in buffer supplemented with 5 mM of 2-deoxy-D-glucose and 10 μM dxr for 2 hours at 4° C. After centrifugation and supernatant removing, one sample was immediately fixed for charge control and the other samples were resuspended in buffer containing 5 mM of 2-deoxy-D-glucose supplemented with DMSO or 10 μM of paniceins 10 minutes at 25° C. with gentle shaking. After centrifugation and supernatant removing, samples were fixed and deposited on coverslips for epifluorescence microscopy observation. Dxr intracellular fluorescence quantification was carried out using Image J software on more than 30 yeasts on 3 different fields for each condition. The results were analyzed using the Student t test in which significance is attained at P<0.05 (*).
On yeasts: Yeasts expressing Patched (hPtc), mutant Patched (hPtcG509VD513Y), or control yeasts were washed with cold water, resuspended at an OD600 of 10 in Hepes-NaOH buffer (pH 7.0) supplemented with 5 mM of 2-deoxy-D-glucose, and incubated with 10 μM doxorubicin for 2 hours at 4° C. in the cold room on a rotating wheel protected from light. Yeasts were centrifuged and the supernatant was removed. One sample was immediately fixed with 4% paraformaldehyde for doxorubicin loading control. The other samples were resuspended in Hepes-NaOH buffer (pH 7.0) containing 5 mM of 2-deoxy-D-glucose supplemented with DMSO or 10 μM of paniceins, and incubated 10 minutes at 20° C. with gentle shaking in a Benchmark Multi-therm shaker protected from light. Samples were centrifuged for 1 minute at 18,000 g, supernatants were removed and yeasts were fixed with 4% paraformaldehyde. 10 μL of each sample were deposited on a coverslip and observed by epifluorescence microscopy using an objective 63x and filters for Alexa 594. Quantification of doxorubicin intracellular fluorescence was carried out using Image J software on more than 30 yeasts on 3 different fields for each condition. The results were analyzed using the Student t test in which significance is attained at P <0.05.
In order to see if Paniceins inhibit dxr efflux through Patched inhibition, inventors compared dxr efflux on yeasts over-expressing human Patched and control yeasts. After loading with dxr, yeasts were centrifuged and fixed for dxr loading control (LC), or resuspended in buffer supplemented with DMSO or paniceins for efflux measurements. After 10 min a 20° C., yeasts were collected, fixed and deposited on cover-slips. 2-deoxy-D-glucose was added in buffer during loading and efflux in order to inhibit ATP-binding cassette (ABC) transporters. Dxr fluorescence intensity of at least 30 yeasts was measured for each experiment. FIGS. 6A and 12A show the mean fluorescence intensity of 3 independent experiments. […] This was confirmed using yeasts over-expressing Patched mutant VXXXY. […] Yeasts over-expressing hPtcVXXXY are less resistance to growth inhibition by dxr than yeasts over-expressing wild-type hPtc (Bidet et al., 2012).

As for `C/C(=C\Cc1cc(O)ccc1O)CCc1c(C)c(O)c(O)c(C=O)c1C` [P2, Panicein C], the “Efflux (%) of dxr” value is 51%.
`C/C(=C\Cc1cc(O)ccc1O)CCc1c(C)cc(O)c(C=O)c1C` [P3, Panicein B3]: the “Efflux (%) of dxr” value was found to be 46%.
For the compound `Cc1cc(O)c(C=O)c(C)c1CCC1(C)C=Cc2cc(O)ccc2O1` (stereo not drawn) [P4, Panicein B2], the “dxr fluorescence in hPtc-expressing yeasts after efflux” value was “significantly higher amounts of dxr fluorescence” and the “Efflux (%) of dxr” value is 46%.
In the case of `COc1cc(C)c(CC/C(C)=C/Cc2cc(O)ccc2O)c(C)c1C` [P5, Panicein A hydroquinone], the “dxr fluorescence in hPtc-expressing yeasts after efflux” value is “significantly higher amounts of dxr fluorescence” and the “Efflux (%) of dxr” value was found to be 40%.
